Data taken from ChEMBL document CHEMBL5113392, “Novel hybrid pyrrolidinedione-thiazolidinones as potential anticancer agents: Synthesis and biological evaluation” (Eur J Med Chem, 2022).
Active and inactive are the calls of the source. The calls are words filed in the database; no cut-off is given here.

Legend:
UO-31 = assay: Anticancer activity against human UO-31 cells assessed as inhibition of cell growth at 10 uM incubated for 48 hrs by SRB assay; assay type: functional; settings: UO-31, 48 h, values are per cent of control
CCRF-CEM = assay: Anticancer activity against human CCRF-CEM cells assessed as growth inhibition incubated for 48 hrs by SRB assay; assay type: functional
SR = assay: Anticancer activity against human SR cells assessed as growth inhibition incubated for 48 hrs by SRB assay; assay type: functional
NCI-H226 [1] = assay: Anticancer activity against human NCI-H226 cells assessed as growth inhibition incubated for 48 hrs by SRB assay; assay type: functional
HCC 2998 = assay: Anticancer activity against human HCC 2998 cells assessed as growth inhibition incubated for 48 hrs by SRB assay; assay type: functional
HCT-116 [2] = assay: Anticancer activity against human HCT-116 cells assessed as growth inhibition incubated for 48 hrs by SRB assay; assay type: functional
SW-620 [3] = assay: Anticancer activity against human SW-620 cells assessed as growth inhibition incubated for 48 hrs by SRB assay; assay type: functional
SF-539 = assay: Anticancer activity against human SF-539 cells assessed as growth inhibition incubated for 48 hrs by SRB assay; assay type: functional
SK-MEL-28 [4] = assay: Anticancer activity against human SK-MEL-28 cells assessed as growth inhibition incubated for 48 hrs by SRB assay; assay type: functional
OVCAR-3 = assay: Anticancer activity against human OVCAR-3 cells assessed as growth inhibition incubated for 48 hrs by SRB assay; assay type: functional
OVCAR-5 [5] = assay: Anticancer activity against human OVCAR-5 cells assessed as growth inhibition incubated for 48 hrs by SRB assay; assay type: functional
786-0 = assay: Anticancer activity against human 786-0 cells assessed as growth inhibition incubated for 48 hrs by SRB assay; assay type: functional
SN12C = assay: Anticancer activity against human SN12C cells assessed as growth inhibition incubated for 48 hrs by SRB assay; assay type: functional
MDA-MB-231 [6] = assay: Anticancer activity against human MDA-MB-231 cells assessed as growth inhibition incubated for 48 hrs by SRB assay; assay type: functional
Hs-578T = assay: Anticancer activity against human Hs-578T cells assessed as growth inhibition incubated for 48 hrs by SRB assay; assay type: functional
NCI-H226 [7] = assay: Anticancer activity against human NCI-H226 cells assessed as total growth inhibition incubated for 48 hrs by SRB assay; assay type: functional
NCI-H522 = assay: Anticancer activity against human NCI-H522 cells assessed as total growth inhibition incubated for 48 hrs by SRB assay; assay type: functional
HT-29 = assay: Anticancer activity against human HT-29 cells assessed as total growth inhibition incubated for 48 hrs by SRB assay; assay type: functional
SW-620 [8] = assay: Anticancer activity against human SW-620 cells assessed as total growth inhibition incubated for 48 hrs by SRB assay; assay type: functional
SF-295 = assay: Anticancer activity against human SF-295 cells assessed as total growth inhibition incubated for 48 hrs by SRB assay; assay type: functional
Malme-3M = assay: Anticancer activity against human Malme-3M cells assessed as total growth inhibition incubated for 48 hrs by SRB assay; assay type: functional
SK-MEL-28 [9] = assay: Anticancer activity against human SK-MEL-28 cells assessed as total growth inhibition incubated for 48 hrs by SRB assay; assay type: functional
IGROV-1 [10] = assay: Anticancer activity against human IGROV-1 cells assessed as total growth inhibition incubated for 48 hrs by SRB assay; assay type: functional
OVCAR-5 [11] = assay: Anticancer activity against human OVCAR-5 cells assessed as total growth inhibition incubated for 48 hrs by SRB assay; assay type: functional
MDA-MB-231 [12] = assay: Anticancer activity against human MDA-MB-231 cells assessed as total growth inhibition incubated for 48 hrs by SRB assay; assay type: functional
BT-549 = assay: Anticancer activity against human BT-549 cells assessed as total growth inhibition incubated for 48 hrs by SRB assay; assay type: functional
A549 = assay: Anticancer activity against human A549 cells assessed as lethality incubated for 48 hrs by SRB assay; assay type: functional; settings: read-out: LC50 (the source's name)
HOP-62 = assay: Anticancer activity against human HOP-62 cells assessed as lethality incubated for 48 hrs by SRB assay; assay type: functional; settings: read-out: LC50 (the source's name)
NCI-H226 [13] = assay: Anticancer activity against human NCI-H226 cells assessed as lethality incubated for 48 hrs by SRB assay; assay type: functional; settings: read-out: LC50 (the source's name)
HCT-116 [14] = assay: Anticancer activity against human HCT-116 cells assessed as lethality incubated for 48 hrs by SRB assay; assay type: functional; settings: read-out: LC50 (the source's name)
KM12 = assay: Anticancer activity against human KM12 cells assessed as lethality incubated for 48 hrs by SRB assay; assay type: functional; settings: read-out: LC50 (the source's name)
SW-620 [15] = assay: Anticancer activity against human SW-620 cells assessed as lethality incubated for 48 hrs by SRB assay; assay type: functional; settings: read-out: LC50 (the source's name)
U-251 = assay: Anticancer activity against human U-251 cells assessed as lethality incubated for 48 hrs by SRB assay; assay type: functional; settings: read-out: LC50 (the source's name)
MDA-MB-435 = assay: Anticancer activity against human MDA-MB-435 cells assessed as lethality incubated for 48 hrs by SRB assay; assay type: functional; settings: read-out: LC50 (the source's name)
UACC-257 = assay: Anticancer activity against human UACC-257 cells assessed as lethality incubated for 48 hrs by SRB assay; assay type: functional; settings: read-out: LC50 (the source's name)
IGROV-1 [16] = assay: Anticancer activity against human IGROV-1 cells assessed as lethality incubated for 48 hrs by SRB assay; assay type: functional; settings: read-out: LC50 (the source's name)
OVCAR-8 = assay: Anticancer activity against human OVCAR-8 cells assessed as lethality incubated for 48 hrs by SRB assay; assay type: functional; settings: read-out: LC50 (the source's name)
PC-3 = assay: Anticancer activity against human PC-3 cells assessed as lethality incubated for 48 hrs by SRB assay; assay type: functional; settings: read-out: LC50 (the source's name)
Jurkat [17] = assay: Anticancer activity against human Jurkat cells assessed as cell growth inhibition incubated for 72 hrs by MTT assay; assay type: functional
HeLa = assay: Anticancer activity against human HeLa cells assessed as cell growth inhibition incubated for 72 hrs by MTT assay; assay type: functional
[18] = Selectivity index, ratio of GI50 for human HaCaT cells to GI50 for human MCF7 cells; assay type: toxicity; settings: HaCaT cells versus MCF7 cells, read-out: RatioGI50
[19] = Selectivity index, ratio of GI50 for human HaCaT cells to GI50 for human KB 3-1 cells; assay type: toxicity; settings: HaCaT cells versus KB 3-1 cells, read-out: RatioGI50
[20] = Selectivity index, ratio of GI50 for human HaCaT cells to GI50 for human HeLa cells; assay type: toxicity; settings: HaCaT cells versus HeLa cells, read-out: RatioGI50
[21] = Selectivity index, ratio of GI50 for human HaCaT cells to GI50 for human HCT-116 cells; assay type: toxicity; settings: HaCaT cells versus HCT-116 cells, read-out: RatioGI50
[22] = Selectivity index, ratio of GI50 for human HaCaT cells to GI50 for human SK-OV-3 cells; assay type: toxicity; settings: HaCaT cells versus SK-OV-3 cells, read-out: RatioGI50
[23] = Cytotoxicity against mitogen activated human peripheral blood lymphocytes assessed as cell growth inhibition incubated for 24 hrs by MTT assay; assay type: toxicity, cell-based, Lymphocyte
Jurkat [24] = assay: Induction of morphological changes in human Jurkat cells assessed as chromatin condensation incubated for 24 hrs by Hoechst 33258 and propidium iodide staining based fluorescence microscopy; assay type: functional, cell-based
Lymphocyte = assay: Induction of morphological changes in mitogen activated human peripheral blood lymphocytes assessed as increase in necrotic cells incubated for 24 hrs by Hoechst 33258 and propidium iodide staining based fluorescence microscopy; assay type: toxicity, cell-based

O=C1CC(N2C(=O)/C(=C/C(Cl)=C/c3ccc([N+](=O)[O-])cc3)SC2=S)C(=O)N1c1ccc(Cl)cc1 (stereo unspecified)
growth, % of control at 10 µM (UO-31): -42.9%
GI50 (CCRF-CEM): 0.486 µM
GI50 (SR): 0.544 µM
GI50 (NCI-H226 [1]): 1.92 µM
GI50 (HCC 2998): 1.59 µM
GI50 (HCT-116 [2]): 1.35 µM
GI50 (SW-620 [3]): 0.508 µM
GI50 (SF-539): 1.69 µM
GI50 (SK-MEL-28 [4]): 1.71 µM
GI50 (OVCAR-3): 0.721 µM
GI50 (OVCAR-5 [5]): 2.04 µM
GI50 (786-0): 1.63 µM
GI50 (SN12C): 1.69 µM
GI50 (MDA-MB-231 [6]): 3.75 µM
GI50 (Hs-578T): 1.8 µM
TGI (NCI-H226 [7]): 4.65 µM
TGI (NCI-H522): 4.36 µM
TGI (HT-29): 4.6 µM
TGI (SW-620 [8]): 3.9 µM
TGI (SF-295): 3.24 µM
TGI (Malme-3M): 11.6 µM
TGI (SK-MEL-28 [9]): 4.02 µM
TGI (IGROV-1 [10]): 3.26 µM
TGI (OVCAR-5 [11]): 4.46 µM
TGI (MDA-MB-231 [12]): 47.8 µM
TGI (BT-549): 3.74 µM
CC50 (A549): > 100 µM
CC50 (HOP-62): > 100 µM
CC50 (NCI-H226 [13]): > 100 µM
CC50 (HCT-116 [14]): 6.85 µM
CC50 (KM12): > 100 µM
CC50 (SW-620 [15]): > 100 µM
CC50 (U-251): 14.1 µM
CC50 (MDA-MB-435): 6.98 µM
CC50 (UACC-257): > 100 µM
CC50 (IGROV-1 [16]): 49.6 µM
CC50 (OVCAR-8): > 100 µM
CC50 (PC-3): > 100 µM
GI50 (Jurkat [17]): 3.4 µM
GI50 (HeLa): 6.65 µM
selectivity ratio [18]: 12.6
selectivity ratio [19]: 1.42
selectivity ratio [20]: 15
selectivity ratio [21]: 10.9
selectivity ratio [22]: 1.52
GI50 at 24 h [23]: 36.8 µM
Activity (Jurkat [24]): Active
Activity (Lymphocyte): Toxic

O=C1CC(N2C(=O)/C(=C/C(Cl)=C/c3ccc([N+](=O)[O-])cc3)SC2=S)C(=O)N1c1ccc(O)cc1 (stereo unspecified)
growth, % of control at 10 µM (UO-31): -75.2%
GI50 (CCRF-CEM): 0.385 µM
GI50 (SR): 0.394 µM
GI50 (NCI-H226 [1]): 2.41 µM
GI50 (HCC 2998): 1.48 µM
GI50 (HCT-116 [2]): 0.751 µM
GI50 (SW-620 [3]): 0.684 µM
GI50 (SF-539): 1.72 µM
GI50 (SK-MEL-28 [4]): 1.95 µM
GI50 (OVCAR-3): 0.604 µM
GI50 (OVCAR-5 [5]): 1.91 µM
GI50 (786-0): 1.23 µM
GI50 (SN12C): 1.6 µM
GI50 (MDA-MB-231 [6]): 2.14 µM
GI50 (Hs-578T): 2.8 µM
TGI (NCI-H226 [7]): 6.82 µM
TGI (NCI-H522): 4.23 µM
TGI (HT-29): 8.78 µM
TGI (SW-620 [8]): 2.28 µM
TGI (SF-295): 2.7 µM
TGI (Malme-3M): 5.79 µM
TGI (SK-MEL-28 [9]): 4.2 µM
TGI (IGROV-1 [10]): 2.68 µM
TGI (OVCAR-5 [11]): 3.7 µM
TGI (MDA-MB-231 [12]): 5.06 µM
TGI (BT-549): 4.21 µM
CC50 (A549): 50.8 µM
CC50 (HOP-62): > 100 µM
CC50 (NCI-H226 [13]): 50.3 µM
CC50 (HCT-116 [14]): 5.22 µM
CC50 (KM12): 15.8 µM
CC50 (SW-620 [15]): 6.3 µM
CC50 (U-251): 6.53 µM
CC50 (MDA-MB-435): 9.37 µM
CC50 (UACC-257): 44.2 µM
CC50 (IGROV-1 [16]): 5.98 µM
CC50 (OVCAR-8): > 100 µM
CC50 (PC-3): 8.6 µM
GI50 (Jurkat [17]): 1.3 µM
GI50 (HeLa): 6.13 µM
selectivity ratio [18]: 18.4
selectivity ratio [19]: 9.2
selectivity ratio [20]: 12
selectivity ratio [21]: 16.3
selectivity ratio [22]: 0.74
GI50 at 24 h [23]: 67.1 µM
Activity (Jurkat [24]): Active
Activity (Lymphocyte): Toxic
